Assay results reported in patent US8431541B2, “Alpha-amylase inhibitors: the montbretins and uses thereof” (The University of British Columbia, priority 2007, dated 2013).

Columns and labels:
[1] = biological target: β-galactosidase (E. coli) (Escherichia coli, UniProt P00722); experiment: Glycosidase specificity: β-galactosidase; format: biochemical; conditions: at 0.1 μM Montbretin A; read-out: RA (%), Residual Enzyme Activity
[2] = test system: α-glucosidase (Brewers Yeast); experiment: Glycosidase specificity: α-glucosidase; format: biochemical; conditions: at 0.1 μM Montbretin A
[3] = Stability in simulated gastric fluid (SGF) by UPLC; format: in vitro ADME; conditions: SGF pH 1.51, 37° C., 1 hour
Method: (§1) The stability of montbretin A in both simulated intestinal fluid (SIF) and simulated gastric fluid (SGF) were analyzed via ultra performance liquid chromatography (UPLC). The instrument consisted of a Waters® Acquity™ UPLC system equipped with a PDA and a TQ detector in tandem. The 2 μL sample injection volume was passed through a Waters® Acquity™ BEH C18 column (1.7 μm, 2.1×100 mm), with mobile phases A and B consisting of water with 0.1% formic acid and acetonitrile with 0.1% formic acid, respectively. The mobile phases were delivered at a programmed linear gradient at a column temperature of 35° C. Linearity was evaluated using a set of montbretin A calibration standards with concentrations ranging from 10 to 100 μg/mL in water. […]
(§2) To examine the gastrointestinal fluid activity, 0.5 mg/ml solutions of oleamide (positive control) in SGF or SIF were prepared by diluting a 100 μL aliquot of oleamide (50 mg/mL in 2-propanol) to 10 mL with either SGF or SIF and incubated in a 37° C. water bath for 1 or 3 hours, respectively. At time points of 1 or 3 hours, the sample was removed from the water bath and a 100 μL aliquot of the resulting solution was diluted to 1 mL with de-ionized water in a glass UPLC glass sample vial and analyzed by UPLC for oleamide content. […]

[4] = Stability in simulated intestinal fluid (SIF) by UPLC; format: in vitro ADME; conditions: SIF pH 6.89, 37° C., within 3 hours
Method: as §1, §2

[5] = test system: control and STZ-diabetic rats; experiment: Acute starch tolerance test; format: in vivo, rat
Method: Twenty-four animals were obtained at 200-250 g of body weight and randomly divided into control and diabetic groups. Diabetes was induced by a single intravenous tail vein injection of streptozotocin 60 mg/kg in 0.9% normal saline. Control rats received normal saline injections only. Animals were subsequently divided into acarbose untreated and treated. […] Starch was obtained from Fisher Scientific and a 17.5% suspension was made in distilled water. The dose of starch given was […].
The animals were fasted overnight. A basal blood sample was collected (50 μl volume) and then at 30, 60, 90 and 120 minutes post drug administration. Starch and starch+acarbose was administered by oral gavage. Blood was centrifuged at 10,000 g×25 minutes and plasma collected for determination of glucose levels using a Beckman Glucose Analyzer II™. There was no difference in body weight among the groups. There was a significant increase in plasma glucose 30 and 60 minutes following starch administration in the diabetic untreated group only.
The twenty-four animals from Example 6 were used following a wash out period of one week. Animals were divided into montbretin A untreated and treated. The four treatment groups were: control, n=6, control+montbretin A, n=6, diabetic, n=6 and diabetic+montbretin A, n=6. The procedures used in Example 6 were employed. Montbretin A was dissolved in distilled water at a concentration of 10 mg/ml and given at a volume of 1 ml/kg. The dose of montbretin A given was 10 mg/kg. There was no difference in body weight among the groups. There was a significant increase in plasma glucose levels in the diabetic untreated group at 30 and 60 minutes following starch administration.
A study was done to determine the effect of various amounts of montbretin A and montbretin extracts on plasma glucose levels in response to a starch challenge in STZ-diabetic rats. Diabetic animals used in the previous Examples were used following a wash out period of one week. The six experimental groups were: diabetic (D, n=3) diabetic+montbretin A (5 mg/kg), (DT5, n=3), diabetic+montbretin A (1 mg/kg), (DT1, n=3), diabetic+montbretin A (0.5 mg/kg), (DT0.5, n=3), diabetic+Crocosmia corm methanol extract (5 mg/kg), (DM, n=3) and diabetic+Crocosmia corm ethanol extract (5 mg/kg), (DE, n=2).
Montbretin A was dissolved in distilled water at a concentration of 5, 1 or 0.5 mg/ml and given at a volume of 1 ml/kg. The methanol extract contained montbretin A at a concentration of 3.2 mg/ml and ethanol extract at a concentration of 1.6 mg/ml. These extracts were dried and resuspended in distilled water. There was no difference in body weight among the groups. […] Diarrhea occurred in 2 out 3 animals given the methanol extract and in 1 out of 2 animals given the ethanol extract. […]

Chain of β-galactosidase (E. coli) (P00722 2-1024 limits assumed): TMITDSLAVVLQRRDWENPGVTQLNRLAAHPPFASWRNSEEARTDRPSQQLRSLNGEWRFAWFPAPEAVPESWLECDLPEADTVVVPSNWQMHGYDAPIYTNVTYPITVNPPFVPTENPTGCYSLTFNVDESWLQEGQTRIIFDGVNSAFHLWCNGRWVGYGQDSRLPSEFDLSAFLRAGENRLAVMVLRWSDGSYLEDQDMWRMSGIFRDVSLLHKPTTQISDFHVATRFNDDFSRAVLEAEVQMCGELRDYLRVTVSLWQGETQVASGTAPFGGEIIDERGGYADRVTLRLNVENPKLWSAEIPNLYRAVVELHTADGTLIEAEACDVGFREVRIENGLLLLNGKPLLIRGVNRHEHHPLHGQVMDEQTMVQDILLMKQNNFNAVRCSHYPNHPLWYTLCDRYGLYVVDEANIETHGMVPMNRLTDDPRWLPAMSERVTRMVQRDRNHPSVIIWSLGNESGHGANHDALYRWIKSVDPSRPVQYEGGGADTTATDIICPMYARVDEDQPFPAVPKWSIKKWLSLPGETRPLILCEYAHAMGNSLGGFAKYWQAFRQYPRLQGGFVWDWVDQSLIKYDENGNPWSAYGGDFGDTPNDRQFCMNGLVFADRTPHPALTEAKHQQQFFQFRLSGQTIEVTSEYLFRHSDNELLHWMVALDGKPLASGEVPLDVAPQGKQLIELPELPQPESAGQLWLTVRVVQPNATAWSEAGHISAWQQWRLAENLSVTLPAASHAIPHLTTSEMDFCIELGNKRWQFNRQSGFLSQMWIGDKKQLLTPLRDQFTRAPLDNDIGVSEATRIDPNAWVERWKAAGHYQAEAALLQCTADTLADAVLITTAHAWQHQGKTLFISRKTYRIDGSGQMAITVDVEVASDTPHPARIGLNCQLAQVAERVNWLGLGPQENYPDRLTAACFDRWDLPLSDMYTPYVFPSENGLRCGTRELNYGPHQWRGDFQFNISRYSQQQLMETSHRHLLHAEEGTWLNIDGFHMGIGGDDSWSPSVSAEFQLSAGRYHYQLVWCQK

CC1O[C@@H](O[C@@H]2CO[C@@H](Oc3c(O)cc(-c4oc5cc(O)cc(O)c5c(=O)c4O[C@@H]4OC(C)[C@H](O)[C@H](O)C4O[C@@H]4OC(COC(=O)/C=C/c5ccc(O)c(O)c5)[C@@H](O)[C@@H](O)C4O[C@@H]4OC(CO)[C@@H](O)[C@@H](O)C4O)cc3O)C(O)[C@@H]2O)C(O)[C@@H](O)[C@H]1O (stereo partly shown) [Montbretin A, montbretin A]
remaining activity at 0.1 µM [1]: 98%
RA (%), Residual Enzyme Activity [2]: 97%
degradation or loss in SGF [3]: ~10%
degradation in SIF [4]: no significant degradation
increase in plasma glucose following starch administration ([5]; 5 mg/kg, acute, STZ-diabetic rats): prevented the increase in plasma glucose
increase in plasma glucose following a starch challenge ([5]; 10 mg/kg, oral gavage, acute, control and STZ-diabetic rats): effective in preventing the increase in plasma glucose
effect on plasma glucose, area under the curve ([5]; lower doses (1 mg/kg, 0.5 mg/kg), STZ-diabetic rats): not particularly significant
